Values after ≈ are worked out from the molar mass of the structure shown.
Legend:
[1] = system: Escherichia coli (E. coli) BAS849; test: Antibacterial activity, microbroth dilution MIC (Table 1); type: cell-based; conditions: microbroth dilution, super sensitive Gram-negative E. coli BAS849, read-out: MIC, BAS849
Procedure, shortened: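 Microbroth dilution was used. MIC, in μg/mL, is the lowest drug concentration preventing macroscopically visible growth under the test conditions.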

[2] = system: Staphylococcus aureus (S. aureus) 29213; test: as above; type: cell-based; conditions: microbroth dilution, Gram-positive S. aureus 29213, read-out: MIC, 29213
Procedure, shortened: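 Broth microdilution; endpoint = no macroscopic growth; value = lowest inhibiting concn, μg/mL.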

E. coli 25922 = test: as above; type: cell-based, Escherichia coli; conditions: Escherichia coli; microbroth dilution; control Gram-negative E. coli 25922 strain; read-out: MIC, 25922
Procedure, shortened: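 In a microbroth dilution test, the minimum inhibitory concentration was defined as the lowest compound level preventing growth seen by eye, and was given in μg/mL.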

E. coli LZ3111 = test: Antibacterial activity, MIC, quinolone resistant strain (Table 2); type: cell-based; conditions: Escherichia coli, LZ3111, read-out: MIC LZ3111
Procedure, shortened: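 MIC values (μg/mL) came from a microbroth dilution assay, scored as the lowest drug concentration at which no growth was visible by eye.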

[3] = system: Acinetobacter baumannii (A. baumannii) BAA747; test: Antibacterial activity, MIC (Table 4); type: cell-based; conditions: A. baumannii BAA747, read-out: MIC, BAA747
Description: (§1) The antibacterial activity from a microbroth dilution method may be presented as the minimum inhibitory concentration (MIC in μg/mL). The MIC value is the lowest concentration of drug which prevents macroscopically visible growth under test conditions.
(§2) Antibacterial activity of test compounds against the Gram-negative Acinetobacter baumannii (A. baumannii) BAA747 and Klebsiella pneumoniae (K. pneumoniae) 35657 bacterium and the resistant A. baumannii MXX2240 and K. pneumoniae MXX1232 strains are shown in Table 4. The MMX strains are multi-drug resistant clinical isolates.

[4] = system: Klebsiella pneumoniae (K. pneumoniae) 35657; test: Antibacterial activity, MIC (Table 4); type: cell-based; conditions: K. pneumoniae 35657, read-out: MIC, 35657
Description: as §1, §2

A. baumannii MXX2240 = test: Antibacterial activity, MIC, resistant strain (Table 4); type: cell-based; conditions: Acinetobacter baumannii, MXX2240; resistant A. baumannii MMX2240, multi-drug resistant clinical isolate; read-out: MIC, MMX2240
Description: as §1, §2

K. pneumoniae MXX1232 = test: as above; type: cell-based; conditions: Klebsiella pneumoniae, MXX1232; resistant K. pneumoniae MMX1232, multi-drug resistant clinical isolate; read-out: MIC, MMX1232
Description: as §1, §2

[5] = system: Pseudomonas aeruginosa (P. aeruginosa) 27853; test: Antibacterial activity, MIC (Table 5); type: cell-based; conditions: P. aeruginosa 27853, read-out: MIC, 27853
Description: as §1
Antibacterial activity of test compounds against the Gram-negative bacterium Pseudomonas aeruginosa (P. aeruginosa) 27853 is shown in Table 5.

With `CCc1cc(C(=O)O)c(=O)[nH]c1-c1ccc2c(c1)ncn2C` [Cpd 53, 5-ethyl-6-(1-methyl-1H-benzo[d]imidazol-5-yl)-2-oxo-1,2-dihydropyridine-3-carboxylic acid] the MIC [1] was 3.5 to 12.5 µg/mL (≈ 11.8 to 42 µM), the MIC [2] was 12.5 to 150 µg/mL (≈ 42 to 505 µM) and the MIC (E. coli 25922) was 12.5 to 150 µg/mL (≈ 42 to 505 µM). It also gave an MIC (E. coli LZ3111) of 12.5 to 150 µg/mL (≈ 42 to 505 µM), an MIC [3] of 12.5 to 150 µg/mL (≈ 42 to 505 µM) and an MIC [4] of 12.5 to 150 µg/mL (≈ 42 to 505 µM). It also gave an MIC (A. baumannii MXX2240) of 12.5 to 150 µg/mL (≈ 42 to 505 µM), an MIC (K. pneumoniae MXX1232) of 12.5 to 150 µg/mL (≈ 42 to 505 µM) and an MIC [5] of 12.5 to 150 µg/mL (≈ 42 to 505 µM).

For `CCc1cc(C(=O)O)c(=O)[nH]c1-c1ccc2c(c1)cc(CN(C)Cc1ccccc1)n2C` [Cpd 121, 6-(2-((benzyl(methyl)amino)methyl)-1-methyl-1H-indol-5-yl)-5-ethyl-2-oxo-1,2-dihydropyridine-3-carboxylic acid], the MIC [1] was < 1 µg/mL, the MIC [2] was 3.5 to 12.5 µg/mL (≈ 8.15 to 29.1 µM) and the MIC (E. coli 25922) was 1 to 3.5 µg/mL (≈ 2.33 to 8.15 µM). It also gave an MIC (E. coli LZ3111) of 12.5 to 150 µg/mL (≈ 29.1 to 349 µM), an MIC [3] of 1 to 3.5 µg/mL (≈ 2.33 to 8.15 µM) and an MIC [4] of 3.5 to 12.5 µg/mL (≈ 8.15 to 29.1 µM). The MIC (A. baumannii MXX2240) was 12.5 to 150 µg/mL (≈ 29.1 to 349 µM), the MIC (K. pneumoniae MXX1232) was 12.5 to 150 µg/mL (≈ 29.1 to 349 µM) and the MIC [5] was 12.5 to 150 µg/mL (≈ 29.1 to 349 µM).

For `CCc1cc(C(=O)O)c(=O)[nH]c1-c1ccc2c(c1)cc(CN(CC)CC)n2C` [Cpd 123, 6-(2-((diethylamino)methyl)-1-methyl-1H-indol-5-yl)-5-ethyl-2-oxo-1,2-dihydropyridine-3-carboxylic acid], the MIC [1] was < 1 µg/mL, the MIC [2] was 12.5 to 150 µg/mL (≈ 32.8 to 393 µM) and the MIC (E. coli 25922) was < 1 µg/mL. For the same molecule, the MIC (E. coli LZ3111) was 12.5 to 150 µg/mL (≈ 32.8 to 393 µM), the MIC [3] was 1 to 3.5 µg/mL (≈ 2.62 to 9.17 µM) and the MIC [4] was < 1 µg/mL. For the same molecule, the MIC (A. baumannii MXX2240) was 12.5 to 150 µg/mL (≈ 32.8 to 393 µM), the MIC (K. pneumoniae MXX1232) was 12.5 to 150 µg/mL (≈ 32.8 to 393 µM) and the MIC [5] was 12.5 to 150 µg/mL (≈ 32.8 to 393 µM).

`CCc1cc(C(=O)O)c(=O)[nH]c1-c1ccc2c(c1)cc(CN1CCOCC1)n2C` [Cpd 137, 5-ethyl-6-(1-methyl-2-(morpholinomethyl)-1H-indol-5-yl)-2-oxo-1,2-dihydropyridine-3-carboxylic acid] was tested, and the MIC [1] was < 1 µg/mL, the MIC [2] was 12.5 to 150 µg/mL (≈ 31.6 to 379 µM) and the MIC (E. coli 25922) was 1 to 3.5 µg/mL (≈ 2.53 to 8.85 µM). It also gave an MIC (E. coli LZ3111) of 12.5 to 150 µg/mL (≈ 31.6 to 379 µM), an MIC [3] of 3.5 to 12.5 µg/mL (≈ 8.85 to 31.6 µM) and an MIC [4] of 1 to 3.5 µg/mL (≈ 2.53 to 8.85 µM). It also gave an MIC (A. baumannii MXX2240) of 12.5 to 150 µg/mL (≈ 31.6 to 379 µM), an MIC (K. pneumoniae MXX1232) of 12.5 to 150 µg/mL (≈ 31.6 to 379 µM) and an MIC [5] of 12.5 to 150 µg/mL (≈ 31.6 to 379 µM).

With `CCc1cc(C(=O)O)c(=O)[nH]c1-c1ccc2c(c1)cc(CN1CCN(C)CC1)n2C` [Cpd 140, 5-ethyl-6-(1-methyl-2-((4-methylpiperazin-1-yl)methyl)-1H-indol-5-yl)-2-oxo-1,2-dihydropyridine-3-carboxylic acid] the MIC [1] was < 1 µg/mL, the MIC [2] was 12.5 to 150 µg/mL (≈ 30.6 to 367 µM) and the MIC (E. coli 25922) was 1 to 3.5 µg/mL (≈ 2.45 to 8.57 µM). The MIC (E. coli LZ3111) was 12.5 to 150 µg/mL (≈ 30.6 to 367 µM), the MIC [3] was 3.5 to 12.5 µg/mL (≈ 8.57 to 30.6 µM) and the MIC [4] was 1 to 3.5 µg/mL (≈ 2.45 to 8.57 µM). For the same molecule, the MIC (A. baumannii MXX2240) was 12.5 to 150 µg/mL (≈ 30.6 to 367 µM), the MIC (K. pneumoniae MXX1232) was 12.5 to 150 µg/mL (≈ 30.6 to 367 µM) and the MIC [5] was 12.5 to 150 µg/mL (≈ 30.6 to 367 µM).

With `CCc1cc(C(=O)O)c(=O)[nH]c1-c1ccc2c(c1)cc1n2CCC1N1CCCCC1` (stereo not drawn) [Cpd 154, 5-ethyl-2-oxo-6-(1-(piperidin-1-yl)-2,3-dihydro-1H-pyrrolo[1,2-a]indol-7-yl)-1,2-dihydropyridine-3-carboxylic acid] the MIC [1] was < 1 µg/mL, the MIC [2] was 12.5 to 150 µg/mL (≈ 30.8 to 370 µM) and the MIC (E. coli 25922) was 1 to 3.5 µg/mL (≈ 2.47 to 8.63 µM). It also gave an MIC (E. coli LZ3111) of 12.5 to 150 µg/mL (≈ 30.8 to 370 µM), an MIC [3] of 3.5 to 12.5 µg/mL (≈ 8.63 to 30.8 µM) and an MIC [4] of 1 to 3.5 µg/mL (≈ 2.47 to 8.63 µM). It also gave an MIC (A. baumannii MXX2240) of 12.5 to 150 µg/mL (≈ 30.8 to 370 µM), an MIC (K. pneumoniae MXX1232) of 12.5 to 150 µg/mL (≈ 30.8 to 370 µM) and an MIC [5] of 12.5 to 150 µg/mL (≈ 30.8 to 370 µM).

In the case of `CCc1c(-c2ccc3c(c2)cc(CN2C[C@@H]4[C@H](C2)[C@H]4NC)n3C)[nH]c(=O)c(C(=O)O)c1O` [Cpd 208, 5-ethyl-4-hydroxy-6-(1-methyl-2-(((1R,5S,6s)-6-(methylamino)-3-azabicyclo[3.1.0]hexan-3-yl)methyl)-1H-indol-5-yl)-2-oxo-1,2-dihydropyridine-3-carboxylic acid], the MIC [1] is reported as < 1 µg/mL, the MIC [2] is reported as 3.5 to 12.5 µg/mL (≈ 8.02 to 28.6 µM) and the MIC (E. coli 25922) is reported as < 1 µg/mL. For the same molecule, the MIC (E. coli LZ3111) was 3.5 to 12.5 µg/mL (≈ 8.02 to 28.6 µM), the MIC (A. baumannii MXX2240) was 12.5 to 150 µg/mL (≈ 28.6 to 344 µM) and the MIC (K. pneumoniae MXX1232) was 12.5 to 150 µg/mL (≈ 28.6 to 344 µM).

In the case of `CCc1c(-c2ccc3c(c2)cc(CNCc2ccncc2)n3C)[nH]c(=O)c(C(=O)O)c1O.Cl` [Cpd 221, 5-ethyl-4-hydroxy-6-(1-methyl-2-((pyridin-4-ylmethylamino)methyl)-1H-indol-5-yl)-2-oxo-1,2-dihydropyridine-3-carboxylic acid hydrochloride], the MIC [1] is reported as < 1 µg/mL, the MIC [2] is reported as 1 to 3.5 µg/mL and the MIC (E. coli 25922) is reported as 1 to 3.5 µg/mL. The MIC (E. coli LZ3111) was 12.5 to 150 µg/mL, the MIC [4] was 1 to 3.5 µg/mL and the MIC (K. pneumoniae MXX1232) was 12.5 to 150 µg/mL.

`CCc1c(-c2ccc3c(c2)cc(CN2CCC(O)CC2)n3C)[nH]c(=O)c(C(=O)O)c1O` [Cpd 254, 5-ethyl-4-hydroxy-6-(2-((4-hydroxypiperidin-1-yl)methyl)-1-methyl-1H-indol-5-yl)-2-oxo-1,2-dihydropyridine-3-carboxylic acid] was tested, and the MIC [1] was < 1 µg/mL, the MIC [2] was 3.5 to 12.5 µg/mL (≈ 8.23 to 29.4 µM) and the MIC (E. coli 25922) was 1 to 3.5 µg/mL (≈ 2.35 to 8.23 µM). The MIC (E. coli LZ3111) was 12.5 to 150 µg/mL (≈ 29.4 to 353 µM), the MIC [4] was 3.5 to 12.5 µg/mL (≈ 8.23 to 29.4 µM) and the MIC (K. pneumoniae MXX1232) was 12.5 to 150 µg/mL (≈ 29.4 to 353 µM).

— patent US9409905B2, “Antibacterial compounds and methods for use” (PTC THERAPEUTICS, INC., priority 2011, dated 2016)
